In brackets after ≈: the same amount, converted by molar mass.
Experiments:
Assay in all cases: In vitro antibacterial evaluation: minimum inhibitory concentration (MIC), broth dilution method
Assay type in all cases: cell-based
Escherichia coli = details: for MIC Escherichia coli (ATCC 25922): strain ATCC 25922; for MIC Escherichia coli (GC 4559): strain GC 4559; for MIC Escherichia coli (GC 4560): strain GC 4560
Protocol: (§1) The minimum inhibitory concentration (MIC), the lowest concentration of the antibiotic which inhibits growth of the test organism, is determined by the broth dilution method using Muller-Hinton II […] (Baltimore Biological Laboratories) following the recommendations of the National Committee for Clinical Laboratory Standards [Methods for dilution antimicrobial susceptibility tests for bacteria that grow aerobically, approved standard M7-A2, National Committee for Clinical Laboratory Standards, Villanova, Pa].
(§2) An inoculum level of 5×10^5 CFU/mL, and a range of antibiotic concentrations (64-0.06 μg/mL) is used. […] The test organisms include a spectrum of Gram-positive bacteria comprised of Staphylococcus sp., Streptococcus sp. and Enterococcus sp. These organisms include recent clinical isolates that are resistant to methicillin, penicillin and/or vancomycin.

Streptococcus sp. = tested on: Streptococcus sp.
Protocol: as §1, §2

Staphylococcus sp. = details: broth dilution, 18 hours at 35° C.; for MIC Staphylococcus aureus-SMITH (GC 4543): strain SMITH GC 4543
Protocol: as §1, §2

Enterococcus sp. = details: for MIC Enterococcus faecalis (ATCC 29212): strain ATCC 29212; for MIC Enterococcus faecium (GC 2243): strain GC 2243; for MIC Enterococcus faecalis (GC 4552): strain GC 4552; for MIC Enterococcus faecalis (GC 4553): strain GC 4553; for MIC Enterococcus faecalis (GC 4554): strain GC 4554; for MIC Enterococcus faecium (GC 4556): strain GC 4556; for MIC Enterococcus faecium (GC 4557): strain GC 4557; for MIC Enterococcus avium (GC 4558): strain GC 4558; for MIC Enterococcus faecalis (GC 6189): strain GC 6189
Protocol: as §1, §2

[1] = Streptococcus agalactiae (GC 4564), broth dilution, 18 hours at 35° C.
[2] = Streptococcus pneumoniae (ATCC 6301), broth dilution, 18 hours at 35° C.
[3] = Streptococcus pneumoniae (GC 1894), broth dilution, 18 hours at 35° C.
[4] = Streptococcus pneumoniae (GC 4565), broth dilution, 18 hours at 35° C.
[5] = Streptococcus pyogenes (GC 4563), broth dilution, 18 hours at 35° C.
[6] = Enterococcus faecalis (GC 2242), broth dilution, 18 hours at 35° C.
[7] = Enterococcus faecalis (GC 2691), broth dilution, 18 hours at 35° C.
[8] = Enterococcus faecalis (GC 3059), broth dilution, 18 hours at 35° C.

SMILES | MIC Escherichia coli (ATCC 25922) (Escherichia coli) [µg/mL] | MIC Escherichia coli (GC 4559) (Escherichia coli) [µg/mL] | MIC Escherichia coli (GC 4560) (Escherichia coli) [µg/mL] | MIC Streptococcus agalactiae (GC 4564) (Streptococcus sp.; [1]) [µg/mL] | MIC Streptococcus pneumoniae (ATCC 6301) (Streptococcus sp.; [2]) [µg/mL] | MIC Streptococcus pneumoniae (GC 1894) (Streptococcus sp.; [3]) [µg/mL] | MIC Streptococcus pneumoniae (GC 4565) (Streptococcus sp.; [4]) [µg/mL] | MIC Streptococcus pyogenes (GC 4563) (Streptococcus sp.; [5]) [µg/mL] | MIC Streptococcus pneumoniae (ATCC 6301) (Streptococcus sp.; strain ATCC 6301) [µg/mL] | MIC Streptococcus pneumoniae (GC 1894) (Streptococcus sp.; strain GC 1894) [µg/mL] | MIC Streptococcus pyogenes (GC 4563) (Streptococcus sp.; strain GC 4563) [µg/mL] | MIC Streptococcus agalactiae (GC 4564) (Streptococcus sp.; strain GC 4564) [µg/mL] | MIC Streptococcus pneumoniae (GC 4565) (Streptococcus sp.; strain GC 4565) [µg/mL] | MIC Staphylococcus aureus (ATCC 29213) (Staphylococcus sp.) [µg/mL] | MIC Staphylococcus aureus (GC 1131) (Staphylococcus sp.) [µg/mL] | MIC Staphylococcus aureus (GC 3051) (Staphylococcus sp.) [µg/mL] | MIC Staphylococcus aureus (GC 3053) (Staphylococcus sp.) [µg/mL] | MIC Staphylococcus aureus (GC 4541) (Staphylococcus sp.) [µg/mL] | MIC Staphylococcus aureus (GC 4542) (Staphylococcus sp.) [µg/mL] | MIC Staphylococcus aureus (GC 4544) (Staphylococcus sp.) [µg/mL] | also measured
CCCCCCCN1CC(C(O)C2NC(=O)C(C(O)C3CNC(=N)N3)NC(=O)C(Cc3ccc(OC4OC(CO)C(OC5OC6COC7(OC6C(O)C5O)C5CC6CC(C5)CC7C6)C(O)C4O)cc3)NC(=O)C(C(C)c3ccccc3)NC(=O)CNC(=O)C(CO)NC2=O)N(C2OC(CO)C(O)C(O)C2O)C1=N (stereo not drawn) [Example 83, Cyclo[glycyl-β-methylphenylalanyl-O-[4-O-[4,6-O-(2-adamantylidene)hexopyranosyl]hexopyranosyl]tyrosyl-3-(2-iminoimidazolidin-4-yl)seryl-3-[1-heptyl-3-hexopyranosyl-2-iminoimidazolidin-4-yl]serylseryl]] | 64 (≈ 41.9 µM) | 32 (≈ 21 µM) | 2 (≈ 1.31 µM) | 0.25 (≈ 0.164 µM) | 0.5 (≈ 0.328 µM) | <0.12 | 0.25 (≈ 0.164 µM) | 0.25 (≈ 0.164 µM) | 0.5 (≈ 0.328 µM) | <0.12 | 0.25 (≈ 0.164 µM) | 0.25 (≈ 0.164 µM) | 0.25 (≈ 0.164 µM) | 2 (≈ 1.31 µM) | 4 (≈ 2.62 µM) | 4 (≈ 2.62 µM) | 4 (≈ 2.62 µM) | 2 (≈ 1.31 µM) | 4 (≈ 2.62 µM) | 4 (≈ 2.62 µM) | MIC Staphylococcus aureus (GC 4545) (Staphylococcus sp.): 2 µg/mL (≈ 1.31 µM); MIC Staphylococcus aureus-SMITH (GC 4543) (Staphylococcus sp.): 2 µg/mL (≈ 1.31 µM); MIC Enterococcus faecalis (GC 2242) (Enterococcus sp.; [6]): 4 µg/mL (≈ 2.62 µM); MIC Enterococcus faecalis (GC 2691) (Enterococcus sp.; [7]): 4 µg/mL (≈ 2.62 µM); MIC Enterococcus faecalis (GC 3059) (Enterococcus sp.; [8]): 4 µg/mL (≈ 2.62 µM); MIC Enterococcus faecalis (ATCC 29212) (Enterococcus sp.): 4 µg/mL (≈ 2.62 µM); MIC Enterococcus faecalis (GC 2242) (Enterococcus sp.; strain GC 2242): 4 µg/mL (≈ 2.62 µM); MIC Enterococcus faecium (GC 2243) (Enterococcus sp.): 2 µg/mL (≈ 1.31 µM); MIC Enterococcus faecalis (GC 2691) (Enterococcus sp.; strain GC 2691): 4 µg/mL (≈ 2.62 µM); MIC Enterococcus faecalis (GC 3059) (Enterococcus sp.; strain GC 3059): 4 µg/mL (≈ 2.62 µM); MIC Enterococcus faecalis (GC 4552) (Enterococcus sp.): 4 µg/mL (≈ 2.62 µM); MIC Enterococcus faecalis (GC 4553) (Enterococcus sp.): 2 µg/mL (≈ 1.31 µM); MIC Enterococcus faecalis (GC 4554) (Enterococcus sp.): 4 µg/mL (≈ 2.62 µM); MIC Enterococcus faecium (GC 4556) (Enterococcus sp.): 4 µg/mL (≈ 2.62 µM); MIC Enterococcus faecium (GC 4557) (Enterococcus sp.): 1 µg/mL (≈ 0.655 µM); MIC Enterococcus avium (GC 4558) (Enterococcus sp.): 2 µg/mL (≈ 1.31 µM); MIC Enterococcus faecalis (GC 6189) (Enterococcus sp.): 4 µg/mL (≈ 2.62 µM)
CCCCCCN=C1NCC(C(O)C2NC(=O)C(C(O)C3CNC(=N)N3)NC(=O)C(Cc3ccc(OC4OC(CO)C(OC5OC6COC7(OC6C(O)C5O)C5CC6CC(C5)CC7C6)C(O)C4O)cc3)NC(=O)C(C(C)c3ccccc3)NC(=O)CNC(=O)C(CO)NC2=O)N1C1OC(CO)C(O)C(O)C1O (centres unmarked) [Example 84] | >64 | 64 (≈ 42.3 µM) | 4 (≈ 2.65 µM) | 1 (≈ 0.662 µM) | 1 (≈ 0.662 µM) | 0.12 (≈ 0.0794 µM) | 1 (≈ 0.662 µM) | 0.5 (≈ 0.331 µM) | 1 (≈ 0.662 µM) | 0.12 (≈ 0.0794 µM) | 0.5 (≈ 0.331 µM) | 1 (≈ 0.662 µM) | 1 (≈ 0.662 µM) | 8 (≈ 5.29 µM) | 8 (≈ 5.29 µM) | 8 (≈ 5.29 µM) | 8 (≈ 5.29 µM) | 4 (≈ 2.65 µM) | 8 (≈ 5.29 µM) | 8 (≈ 5.29 µM) | MIC Staphylococcus aureus (GC 4545) (Staphylococcus sp.): 8 µg/mL (≈ 5.29 µM); MIC Staphylococcus aureus-SMITH (GC 4543) (Staphylococcus sp.): 4 µg/mL (≈ 2.65 µM); MIC Enterococcus faecalis (GC 2242) (Enterococcus sp.; [6]): 8 µg/mL (≈ 5.29 µM); MIC Enterococcus faecalis (GC 2691) (Enterococcus sp.; [7]): 8 µg/mL (≈ 5.29 µM); MIC Enterococcus faecalis (GC 3059) (Enterococcus sp.; [8]): 8 µg/mL (≈ 5.29 µM); MIC Enterococcus faecalis (ATCC 29212) (Enterococcus sp.): 8 µg/mL (≈ 5.29 µM); MIC Enterococcus faecalis (GC 2242) (Enterococcus sp.; strain GC 2242): 8 µg/mL (≈ 5.29 µM); MIC Enterococcus faecium (GC 2243) (Enterococcus sp.): 4 µg/mL (≈ 2.65 µM); MIC Enterococcus faecalis (GC 2691) (Enterococcus sp.; strain GC 2691): 8 µg/mL (≈ 5.29 µM); MIC Enterococcus faecalis (GC 3059) (Enterococcus sp.; strain GC 3059): 8 µg/mL (≈ 5.29 µM); MIC Enterococcus faecalis (GC 4552) (Enterococcus sp.): 8 µg/mL (≈ 5.29 µM); MIC Enterococcus faecalis (GC 4553) (Enterococcus sp.): 8 µg/mL (≈ 5.29 µM); MIC Enterococcus faecalis (GC 4554) (Enterococcus sp.): 16 µg/mL (≈ 10.6 µM); MIC Enterococcus faecium (GC 4556) (Enterococcus sp.): 8 µg/mL (≈ 5.29 µM); MIC Enterococcus faecium (GC 4557) (Enterococcus sp.): 1 µg/mL (≈ 0.662 µM); MIC Enterococcus avium (GC 4558) (Enterococcus sp.): 8 µg/mL (≈ 5.29 µM); MIC Enterococcus faecalis (GC 6189) (Enterococcus sp.): 8 µg/mL (≈ 5.29 µM)

Reference: patent publication US8247211B2, “Glycopeptide antibiotics” (American Cyanamid Company, priority 2001, dated 2012)
